{"source": "patent US20070110715A1", "about": "“Treatment of alzheimer's disease” (Ares Trading S.A., priority 2003, published 2007)", "origin": "cited, not measured here", "system": "Alzheimer's disease risk", "settings": "postmenopausal women using hormone replacement", "data": [{"substance": "estrogen", "values": [{"measurement": "reduction in disease risk (AD)", "result": "~50", "unit": "%"}]}]}
